Test results taken from paper PMC8854749, “Celastrol Inhibits Canine Mammary Tumor Cells by Inducing Apoptosis via the Caspase Pathway” (Frontiers in Veterinary Science, 2022).
pIC50: −log10 of the molar value.

Tests used:
Format in all cases: cell-based, canine
[1] = system: CIPp cells; experiment: Cell Counting Kit-8 (CCK-8) cell viability; conditions: for pIC50: Canis lupus familiaris, CCK-8
Description: (§1) CMT-7364, CIPp, and MDCK cells were plated in a 96-well plate with 2,000 cells per well and maintained in 5% CO2 at 37°C for 24 h until the cells adhered to the bottom. Then the medium was removed, the new media containing different concentrations (0, 0.1, 0.4, 0.6, 0.8, 1.2, and 1.6 μM) of celastrol were added, and incubated for 12, 24, 36, and 48 h. Ten microliters of the cell counting kit-8 (CCK-8) were added to each well for 1 h incubation. At each time point, the OD value was read by a microplate reader at 450 nm wavelength, and the cell viability with each drug concentration at different time points was calculated: cell relative viability=[(OD 450celastrol-OD 450blank) / (OD 450control-OD 450blank)] × 100%.

[2] = system: CMT-7364 cells; experiment: Cell Counting Kit-8 (CCK-8) cell viability; conditions: for pIC50: Canis lupus familiaris, CCK-8
Description: as §1

[3] = system: CIPp cells; experiment: Colony formation assay; conditions: 0.3 μM or 0.9 μM for 24 h, then 10 days, vs control group
Description: (§2) CMT-7364 and CIPp cells were seeded in a 6-well cell culture plate at a concentration of 1 × 10^4 cells/well until they became adherent, cultured for another 24 h with serum-containing medium with 0 μM celastrol (control group), 0.3 μM celastrol, and 0.9 μM celastrol, respectively. Cells were treated with 0.25% trypsin (Gibco, NY, United States) and resuspended into single cells, each group of cells was seeded in a 6-well cell culture plate at 400 cells/well concentration, and cultured for 10 consecutive days. […] The cells were stained with 0.1% crystal violet, and photographed with a digital camera, followed by calculating the number of colonies.

[4] = system: CMT-7364 cells; experiment: Colony formation assay; conditions: 0.3 μM or 0.9 μM for 24 h, then 10 days, vs control group
Description: as §2

[5] = system: CIPp cells; experiment: Cell migration (wound healing) assay; conditions: 0.9 μM, 24 h, relative to cells without celastrol
Description: (§3) CMT-7364 and CIPp cell suspensions were uniformly seeded in a 6-well cell culture plate at a concentration of 1 × 10^5 cells/well. After the cells were fully confluent (more than 90 % of confluence), a 200-μl sterile pipette tip was used to scratch a straight line in the cells of each well. PBS was used to wash away the cell debris and floated cells, and 10% serum-containing medium (control group) and 10% serum-containing medium with celastrol (0.3 μM or 0.9 μM) (test group) were added, respectively, then cells were incubated for 24 h in an incubator. Mitomycin C (1 μM) was used to inhibit cell proliferation. Images of cell migration (wound healing) of the same field were taken with an inverted microscope at 0 and 24 h time points, respectively, followed by analyzing the cell migration rate with ImageJ software (version 1.8.0, United States). In brief, 6–8 horizontal lines were randomly drawn in the wound area to calculate the average value of the distance between cells. The migration rate = [(Distance celastrol0h-Distance celastrol24h) / (Distance control0h-Distance control24h)] × 100%.

[6] = system: CMT-7364 cells; experiment: Cell migration (wound healing) assay; conditions: 0.9 μM, 24 h, relative to cells without celastrol
Description: as §3

[7] = system: CIPp cells; experiment: Cell invasion (transwell, Matrigel) assay
Description: (§4) The transwell chambers were placed in a 24-well cell culture plate, each well was plated with 100 μl serum-free medium containing 5% Matrigel on the upper chamber, and placed in incubator at 37°C for 2 h. The excess media were pipetted out of the upper chamber, 100 μl of cell suspension with or without celastrol treatment (0.3 μM or 0.9 μM) were added at a concentration of 1 × 10^4 cells/ml in each upper chamber; the lower chambers were filled with 600 μl medium containing 10% serum for each well. […] PBS was used to rinse the chambers for 2 min with 3 times repeated, then the cells were fixed with methanol for 10 min, followed by distilled water rinsed for 2 min with 3 times repeated. Finally, cells were dyed with 0.1% crystal violet at room temperature for 20 min, and washed with distilled water until the water is colorless. Images of cell invasion were taken with an inverted microscope, and the stained cells represented the invasion cells were counted by a cell counter to analyze the cell invasion rate. The relative invasion rate = (cell number celastrol /cell number control) × 100%.

[8] = system: CMT-7364 cells; experiment: Cell invasion (transwell, Matrigel) assay
Description: as §4

[9] = system: CIPp cells; experiment: Annexin V-FITC/PI apoptosis flow cytometry; conditions: 0.3 and 0.9 μM, 24 h, vs control group
Description: (§5) CMT-7364 and CIPp cells were seeded in a 6-well plate at a concentration of 1 × 10^5 cells/well, treated with different concentrations of celastrol (0, 0.3, and 0.9 μM) for 24 h. The cell culture medium was collected, the cells were washed once with PBS, digested with 0.25% trypsin, the cells were resuspended with the collected cell culture medium and kept after centrifugation. The cells were stained with Annexin V-FITC Apoptosis Detection Kit, and Guava easy Cyte5 (Merck millipore, United States) was used to detect the stained cells, and the data were analyzed by using Flow Jo software (version 10.0.7, United States).

[10] = system: CMT-7364 cells; experiment: Annexin V-FITC/PI apoptosis flow cytometry; conditions: 0.3 and 0.9 μM, 24 h, vs control group
Description: as §5

[11] = system: CIPp cells; experiment: qPCR of Caspase-3, Caspase-9, p21, p27 mRNA (2^-ΔΔCt, β-actin reference)
Description: After CMT-7364 and CIPp cells were treated with or without 0.9 μM celastrol for 24 h, TRIzol was used to isolate the total RNA of the cells. The RNA was then reverse transcribed into cDNA using a reverse transcriptase kit. A 20 μl reaction system was prepared according to the manufacturer's instructions and tested in the Real-Time PCR System (Long Gene Q1000, China). The results were analyzed by the 2^−ΔΔCt method: ΔΔCt = (target gene Ct of the experimental group-internal reference gene Ct of the experimental group)-(target gene Ct of the control group-internal reference gene Ct of the control group), β-actin was the internal reference gene.

[12] = 0.9 μM, 24 h, relative to control
[13] = 0.3 and 0.9 μM, vs control group
[14] = CIPp cells, 0.9 μM, 24 h, qPCR, vs control

CC1=C(O)C(=O)C=C2C1=CC=C1[C@@]2(C)CC[C@@]2(C)[C@@H]3C[C@](C)(C(=O)O)CC[C@]3(C)CC[C@]12C [celastrol, Celastrol] was tested, and the cell viability ([1]; 0.1-1.6 μM, 12-48 h) was “decreased the viability of the cells in a dose- and time-dependent manner”, the pIC50 ([1]; 24 h) was 5.94 and the pIC50 ([1]; 48 h) was 6.01. For the same molecule, the proliferation ([1]; concentration <1.2 μM) was “significantly inhibited”, the cell viability ([2]; 0.1-1.6 μM, 12-48 h) was “decreased the viability of the cells in a dose- and time-dependent manner” and the pIC50 ([2]; 24 h) was 5.91. For the same molecule, the pIC50 ([2]; 48 h) was 6.00, the proliferation ([2]; concentration <1.2 μM) was “significantly inhibited” and the formation of colonies [3] was “significantly inhibited the formation of colonies”. For the same molecule, the formation of colonies [4] was “significantly inhibited the formation of colonies”, the migration rate [5] was 52.00 ± 1.73% and the migration rate [6] was 55.33 ± 4.91%. For the same molecule, the invasion rate [7, 12] was 32.00 ± 1.73%, the invasion ability [7, 13] was “inhibited the invasion ability of CMT-7364 and CIPp cells in a dose-dependent manner” and the invasion rate [8, 12] was 28.00 ± 1.53%. The invasion ability [8, 13] was “inhibited the invasion ability of CMT-7364 and CIPp cells in a dose-dependent manner”, the “percentages of early and late apoptotic cells” value [9] was “increased in a dose-dependent manner” and the “percentages of early and late apoptotic cells” value [10] was “increased in a dose-dependent manner”. For the same molecule, the “mRNA expression level of Caspase-3” value [11, 14] was “significantly up-regulated”, the “mRNA expression level of Caspase-9” value [11, 14] was “significantly up-regulated” and the “mRNA expression level of p21” value [11, 14] was “up-regulated”. The “mRNA expression level of p27” value [11, 14] was “up-regulated”, the “RQ Max, caspase-9” value ([11]; CIPp, 0.9 μM celastrol, SYBR) was 2.2 and the “RQ Max, p-21” value ([11]; CIPp, 0.9 μM celastrol, SYBR) was 155.13. The “RQ Max, p-27” value ([11]; CIPp, 0.9 μM celastrol, SYBR) was 4.26, the “RQ Max, β-actin” value ([11]; CIPp, 0.9 μM celastrol, SYBR) was 0.51 and the “RQ Min, caspase-9” value ([11]; CIPp, 0.9 μM celastrol, SYBR) was 0.78. For the same molecule, the “RQ Min, p-21” value ([11]; CIPp, 0.9 μM celastrol, SYBR) was 3.13, the “RQ Min, p-27” value ([11]; CIPp, 0.9 μM celastrol, SYBR) was 1.54 and the “RQ Min, β-actin” value ([11]; CIPp, 0.9 μM celastrol, SYBR) was 0.16. For the same molecule, the “RQ, caspase-9” value ([11]; CIPp, 0.9 μM celastrol, SYBR) was 1.31, the “RQ, p-21” value ([11]; CIPp, 0.9 μM celastrol, SYBR) was 22.02 and the “RQ, p-27” value ([11]; CIPp, 0.9 μM celastrol, SYBR) was 2.56. The “RQ, β-actin” value ([11]; CIPp, 0.9 μM celastrol, SYBR) was 0.29, the “RQ, caspase-9” value ([11]; test 1, CIPp cells, 0.9 μM, instrument sheet, calibrator CMT-7364 control RQ 1, CIPp control RQ 0.41) was 0.44 and the “RQ, caspase-3” value ([11]; test 1, CIPp cells, 0.9 μM, instrument sheet, calibrator CMT-7364 control RQ 1, CIPp control RQ 0.46) was 0.42. For the same molecule, the “RQ, p-21” value ([11]; test 1, CIPp cells, 0.9 μM, instrument sheet, calibrator CMT-7364 control RQ 1, CIPp control RQ 0.49) was 0.27, the “RQ, p-27” value ([11]; test 1, CIPp cells, 0.9 μM, instrument sheet, calibrator CMT-7364 control RQ 1, CIPp control RQ 0.59) was 0.17 and the “RQ, caspase-9” value ([11]; test 2, CIPp cells, 0.9 μM, instrument sheet, calibrator CMT-7364 0.9 μM celastrol RQ 1, CIPp control RQ 156.08) was 8.49. The “RQ, p-21” value ([11]; test 2, CIPp cells, 0.9 μM, instrument sheet, calibrator CMT-7364 0.9 μM celastrol RQ 1, CIPp control RQ 156.97) was 12.17 and the “RQ, p-27” value ([11]; test 2, CIPp cells, 0.9 μM, instrument sheet, calibrator CMT-7364 0.9 μM celastrol RQ 1, CIPp control RQ 162.87) was 12.46.
